From patent US20200206233A1 (INTEGRAL BIOSCIENCES PRIVATE LIMITED, priority 2018, published 2020)

What follows are compounds tested against T1, IDH1 mutant (R132H) (Homo sapiens, UniProt O75874, R132H) (assay: Mutant IDH1-R132H Fluorescence Assay (Resazurin based)). Conditions: 10 nM IDH1 R132H, 4 mM α-ketoglutarate, NADPH, 1.5 h at room temperature.
T1 construct: purchased BPS Bioscience 71099-2
Format: biochemical
Description: IC50 values of compounds against IDH1 mutant (R132H) was determined by Resazurin based Fluorescence assay. Assays were performed in Buffer (25 mM Tris HCl, 150 mM NaCl, 10 mM MgCl2, 0.03% BSA, 2 mM 1-mercaptoethanol) where total reaction volume was 12.5 μL in low-volume 384-well plates (Cat #4511, Corning). Serially diluted compounds (3-fold) were incubated with cocktail of α-ketoglutarate (4 mM; Cat #75892-25G, Sigma), NADPH ([…]; Cat # N1630-100MG, Sigma) and buffer for 5 min, following IDH1 R132H mutant (10 nM; Cat #71099-2, BPS Bioscience) was added and incubated in dark at room temperature for 1.5 h. After 1.5 h, 6.25 μL detection solution containing Resazurin ([…]; (Cat #62758-13-8, Sigma) and Diaphorase (40 ug/ml; Cat # D2197-300UN, Sigma) in buffer was added and incubated for 15 min. Readings were taken in a Synergy Neo Plate reader (BioTek, Winooski) at single excitation of 540 nm and emission at 590 nm respectively.
The % (percent) activity of test samples was calculated as (Sample−Min)×100/(Max−Min). [Max: DMSO control, complete reaction with enzyme with DMSO and Min: No enzyme with DMSO]. Percent inhibition (100−% activity) was fitted to the “four-parameter logistic model” in XLfit for determination of IC50 values.

T1 sequence (O75874 whole entry R132H): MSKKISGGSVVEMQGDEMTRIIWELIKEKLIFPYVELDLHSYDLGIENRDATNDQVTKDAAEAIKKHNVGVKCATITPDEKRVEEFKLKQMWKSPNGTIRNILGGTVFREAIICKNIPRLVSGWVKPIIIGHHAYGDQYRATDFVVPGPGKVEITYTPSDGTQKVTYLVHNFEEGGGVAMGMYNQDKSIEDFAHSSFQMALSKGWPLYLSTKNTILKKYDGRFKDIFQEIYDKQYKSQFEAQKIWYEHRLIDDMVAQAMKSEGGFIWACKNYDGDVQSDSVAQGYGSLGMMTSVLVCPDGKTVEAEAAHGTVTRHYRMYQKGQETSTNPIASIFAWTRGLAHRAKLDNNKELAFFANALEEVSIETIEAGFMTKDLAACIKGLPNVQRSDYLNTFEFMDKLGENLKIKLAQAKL

IC50 [µM] | SMILES
1.58 | CC[C@H]1COC(=O)N1c1nc(C)nc(N[C@@H](C)c2ccc(-c3ccc(F)c(C)c3)cn2)n1 [Compound 1.68, (S)-4-ethyl-3-(4-((S)-1-(5-(4-fluoro-3-methylphenyl)pyridin-2-yl)ethylamino)-6-methyl-1,3,5-triazin-2-yl)oxazolidin-2-one]
1.25 | CC[C@H]1COC(=O)N1c1nc(C)nc(N[C@@H](C)c2cc3cc(OC)ccc3[nH]c2=O)n1 [Compound 1.55, (S)-4-ethyl-3-(4-((S)-1-(6-methoxy-2-oxo-1,2-dihydroquinolin-3-yl)ethylamino)-6-methyl-1,3,5-triazin-2-yl)oxazolidin-2-one]
2.02 | Cc1nc(N[C@@H](C)c2ccc(Oc3ccccc3)cc2)nc(N2C(=O)OCC2(C)C)n1 [Compound 1.110, (S)-4,4-dimethyl-3-(4-methyl-6-(1-(4-phenoxyphenyl)ethylamino)-1,3,5-triazin-2-yl)oxazolidin-2-one]
1.79 | CC[C@H]1COC(=O)N1c1nc(C)nc(N[C@@H](C)c2cc3ccccc3[nH]c2=O)n1 [Compound 1.45, (S)-4-ethyl-3-(4-methyl-6-((S)-1-(2-oxo-1,2-dihydroquinolin-3-yl)ethylamino)-1,3,5-triazin-2-yl)oxazolidin-2-one]
3.29 | CC[C@H]1COC(=O)N1c1nc(C)nc(N[C@@H](C)c2ccc(OCc3ccccn3)cc2)n1 [Compound 1.62, (S)-4-ethyl-3-(4-methyl-6-((S)-1-(4-(pyridin-2-ylmethoxy)phenyl)ethylamino)-1,3,5-triazin-2-yl)oxazolidin-2-one]
> 30 | C[C@@H](Nc1ncnc(N2CCOC2=O)n1)c1ccc(Oc2ccccc2)cc1 [Compound 1.20]
21.4 | CC[C@H]1COC(=O)N1c1nc(C)nc(N[C@@H](C)c2ccc(CN3CCN(C(C)=O)CC3)cc2)n1 [Compound 1.98, (S)-3-(4-((S)-1-(4-((4-acetylpiperazin-1-yl)methyl)phenyl)ethylamino)-6-methyl-1,3,5-triazin-2-yl)-4-ethyloxazolidin-2-one]
1.42 | CC[C@H]1COC(=O)N1c1nc(C)nc(N[C@@H](C)c2ccc(Nc3ccccc3)cc2)n1 [Compound 1.89, (S)-4-ethyl-3-(4-methyl-6-((S)-1-(4-(phenylamino)phenyl)ethylamino)-1,3,5-triazin-2-yl)oxazolidin-2-one]
> 30 | CC[C@H]1COC(=O)N1c1nc(C)nc(N[C@H](C)c2cc3cc(Cl)ccc3[nH]c2=O)n1 [Compound 1.39, (S)-3-(4-((R)-1-(6-chloro-2-oxo-1,2-dihydroquinolin-3-yl)ethylamino)-6-methyl-1,3,5-triazin-2-yl)-4-ethyloxazolidin-2-one]
> 30 | CC[C@H]1COC(=O)N1c1nc(C)nc(N[C@H](C)c2cc3cc(-c4ccc(Cl)cc4)ccc3[nH]c2=O)n1 [Compound 1.107, (S)-3-(4-((R)-1-(6-(4-chlorophenyl)-2-oxo-1,2-dihydroquinolin-3-yl)ethylamino)-6-methyl-1,3,5-triazin-2-yl)-4-ethyloxazolidin-2-one]
2.24 | CC[C@H]1COC(=O)N1c1nc(C)nc(N[C@@H](C)c2ccc3c(-c4ccccc4)c[nH]c3c2)n1 [Compound 1.100, (S)-4-ethyl-3-(4-methyl-6-((S)-1-(3-phenyl-1H-indol-6-yl)ethylamino)-1,3,5-triazin-2-yl)oxazolidin-2-one]
> 30 | CC[C@H]1COC(=O)N1c1nc(C)nc(N[C@H](C)c2ccc(C(=O)Nc3ccccc3)cc2)n1 [Compound 1.102, 4-((R)-1-(4-((S)-4-ethyl-2-oxooxazolidin-3-yl)-6-methyl-1,3,5-triazin-2-ylamino)ethyl)-N-phenylbenzamide]
> 30 | CC[C@H]1COC(=O)N1c1nc(C)nc(N[C@H](C)c2cc3cc(OC)ccc3[nH]c2=O)n1 [Compound 1.56, (S)-4-ethyl-3-(4-((R)-1-(6-methoxy-2-oxo-1,2-dihydroquinolin-3-yl)ethylamino)-6-methyl-1,3,5-triazin-2-yl)oxazolidin-2-one]
15.4 | CC[C@H]1COC(=O)N1c1nc(C)nc(N[C@@H](C)c2ccc(OCc3ccccc3)cc2)n1 [Compound 1.73, (S)-3-(4-((S)-1-(4-(benzyloxy)phenyl)ethylamino)-6-methyl-1,3,5-triazin-2-yl)-4-ethyloxazolidin-2-one]
2.64 | CC[C@H]1COC(=O)N1c1nc(C)nc(N[C@@H](C)c2ccc(Cc3ccccc3)cc2)n1 [Compound 1.95, (S)-3-(4-((S)-1-(4-benzylphenyl)ethylamino)-6-methyl-1,3,5-triazin-2-yl)-4-ethyloxazolidin-2-one]
> 30 | CC(C)[C@H]1COC(=O)N1c1ncnc(N[C@@H](C)c2ccccn2)n1 [Compound 1.30, (S)-4-isopropyl-3-(4-((S)-1-(pyridin-2-yl)ethylamino)-1,3,5-triazin-2-yl)oxazolidin-2-one]
> 30 | CC(C)[C@H]1COC(=O)N1c1ncnc(N[C@H](C)c2ccc(N3CCN(C)CC3)cn2)n1 [Compound 1.25, (S)-4-isopropyl-3-(4-((R)-1-(5-(4-methylpiperazin-1-yl)pyridin-2-yl)ethylamino)-1,3,5-triazin-2-yl)oxazolidin-2-one]
> 30 | CC(C)[C@H]1COC(=O)N1c1ncnc(N[C@H](C)c2ccc(Oc3ccccc3)cc2)n1 [Compound 1.8, (S)-4-isopropyl-3-(4-((R)-1-(4-phenoxyphenyl)ethylamino)-1,3,5-triazin-2-yl)oxazolidin-2-one]
> 30 | CC[C@H]1COC(=O)N1c1nc(C)nc(N[C@@H](C)c2cc3cc(-c4ccc(Cl)cc4)ccc3[nH]c2=O)n1 [Compound 1.106, (S)-3-(4-((S)-1-(6-(4-chlorophenyl)-2-oxo-1,2-dihydroquinolin-3-yl)ethylamino)-6-methyl-1,3,5-triazin-2-yl)-4-ethyloxazolidin-2-one]
> 30 | CC[C@H]1COC(=O)N1c1nc(C)nc(N[C@H](C)c2ccc(Oc3ccc(Cl)cc3)c(C)n2)n1 [Compound 1.97, (S)-3-(4-((R)-1-(5-(4-chlorophenoxy)-6-methylpyridin-2-yl)ethylamino)-6-methyl-1,3,5-triazin-2-yl)-4-ethyloxazolidin-2-one]
3.83 | CC[C@H]1COC(=O)N1c1nc(C)nc(N[C@@H](C)c2ccc(Oc3ccc(Cl)cc3)c(C)n2)n1 [Compound 1.96, (S)-3-(4-((S)-1-(5-(4-chlorophenoxy)-6-methylpyridin-2-yl)ethylamino)-6-methyl-1,3,5-triazin-2-yl)-4-ethyloxazolidin-2-one]
17 | CC[C@H]1COC(=O)N1c1nc(C)nc(N[C@H](C)c2ccc(OCc3ccccn3)cc2)n1 [Compound 1.61, (S)-4-ethyl-3-(4-methyl-6-((R)-1-(4-(pyridin-2-ylmethoxy)phenyl)ethylamino)-1,3,5-triazin-2-yl)oxazolidin-2-one]
> 30 | CC[C@H]1COC(=O)N1c1nc(C)nc(N[C@H](C)c2cn3cc(Br)ccc3n2)n1 [Compound 1.48, (S)-3-(4-((R)-1-(6-bromoimidazo[1,2-a]pyridin-2-yl)ethylamino)-6-methyl-1,3,5-triazin-2-yl)-4-ethyloxazolidin-2-one]
1.54 | CC[C@H]1COC(=O)N1c1nc(C)nc(N[C@@H](C)c2ccc3c(ccn3-c3ccccc3)c2)n1 [Compound 1.90, (S)-4-ethyl-3-(4-methyl-6-((S)-1-(1-phenyl-1H-indol-5-yl)ethylamino)-1,3,5-triazin-2-yl)oxazolidin-2-one]
